The source of these data is patent US20050282840A1, “Methods of modulating neurotrophin-mediated activity” (PainCeptor Pharma Corporation, priority 2004, published 2005).

Assay [1] has as its target T1, p75^NTR receptors (PC12 cells) (Rattus norvegicus, UniProt P07174).
T1 construct: endogenous in cells; host or cells: PC12 cells
T1 sequence (P07174 30-425): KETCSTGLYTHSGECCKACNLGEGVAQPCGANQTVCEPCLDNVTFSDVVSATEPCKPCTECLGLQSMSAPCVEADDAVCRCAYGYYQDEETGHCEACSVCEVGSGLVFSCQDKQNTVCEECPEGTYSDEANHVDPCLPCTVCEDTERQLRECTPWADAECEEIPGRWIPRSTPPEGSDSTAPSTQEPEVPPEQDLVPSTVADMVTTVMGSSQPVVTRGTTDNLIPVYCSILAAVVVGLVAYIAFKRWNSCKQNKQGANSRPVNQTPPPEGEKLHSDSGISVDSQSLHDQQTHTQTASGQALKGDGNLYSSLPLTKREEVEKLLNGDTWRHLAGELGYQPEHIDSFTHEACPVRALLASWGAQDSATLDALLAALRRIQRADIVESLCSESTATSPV
T1 sequence (P23560 129-247 partner): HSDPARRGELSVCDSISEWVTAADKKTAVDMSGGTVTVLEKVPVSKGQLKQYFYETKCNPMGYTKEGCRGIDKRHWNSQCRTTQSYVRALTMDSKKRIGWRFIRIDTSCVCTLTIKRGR
Briefly: Basic screening assay: binding of 125I-BDNF to PC12 cells. Particulars: read-out: BDNF Activity % Maximal Binding. As for the experimental part: (§1) The compounds were screened for effects on binding of ^125I-BDNF or ^125I-NGF to PC12 cells (p75^NTR receptors), and those that inhibited binding were further tested to determine the EC50 for this inhibition.
(§2) PC12 cells were cultured and prepared for binding assays as described in Example 1.
(§3) Lypophilized Peprotech human recombinant BDNF (Cedarlane Laboratories, Toronto, Canada, cat. # PE 450-02-10) was reconstituted under sterile conditions to 3.5 μM in sterile HKR/1%BSA, and either used immediately or stored in aliquots of 20 μl at −80° C. Immediately prior to use, a 15 nM (30×) solution of ^125I-BDNF or ^125I-NGF was prepared in HKR buffer, and was used at 0.5 nM final concentration.
(§4) Test Compounds were dissolved to 10 mM in DMSO, and those that were not initially soluble were warmed to 40-50° C. and vortexed. Those compounds that were still not in solution were reported as such. Compounds were then stored in this form at −20° C. until use. Immediately before experiments, 100 mM compounds were diluted to 10 mM in DMSO (1:10), followed by a further dilution to 1 mM (1:10) with distilled water, and a further dilution to 500 μM (1:1) with HKR.
(§5) Assays to determine maximum binding (Bmax), non-specific binding (NSB), and binding in the presence of each test compound (e.g., x, y) were performed at least in duplicate. In a total volume of 300 μL, 4×10^6 PC12 cells were incubated, rotating for 2 h at 4° C. with the following:
(§6) At the conclusion of the binding reaction, 100 μL aliquots of the reaction mixtures were carefully layered over 200 μL of a 10% glycerol solution in a 0.4 mL tube, and subjected to centrifugation in a microcentrifuge for 2 minutes at half maximum speed. The cell pellets containing the bound ^125I-BDNF or ^125I-NGF were then measured using a gamma counter. The mean values of the replicates were then calculated to determine the value for maximum binding (Bmax) and nonspecific binding (NSB), and binding in the presence of test compound at 50 μM (Bx). Specific binding (SB) was measured by subtracting the NSB from the Bmax.

In assay [2] the test system is p75^NTR receptors (PC12 cells). Briefly: Basic screening assay: binding of 125I-NGF to PC12 cells. Particulars: test compound 50 μM, 0.5 nM 125I-NGF, PC12 cells, 2 h at 4° C., specific binding as percent of control. As for the experimental part:
as §1, §2
Lyophilized Serotec mouse 2.5S NGF (Cedarlane Laboratories, Toronto, Canada, cat. # PMP 04Z) was reconstituted under sterile conditions to 1 mg/mL (38 μM) in sterile 0.2% acetic acid, and 100 μL or 50 μL aliquots were stored frozen at −80° C.
as §3, §4, §5
as §6, with “Bmax. Specific binding in the presence of the test compound (SBx) was determined by subtracting the NSB from the Bx for each test compound; and each SBx was divided by SB and multiplied by 100 to give the specific binding in the presence of the compound as a percent of control specific binding.” for “Bmax.”

[3] abbreviates: Table 4, test compound 50 μM, 0.5 nM 125I-BDNF, PC12 cells, 2 h at 4° C., specific binding as percent of control.
[4] abbreviates: Table 1, test compound 50 μM, 0.5 nM 125I-BDNF, PC12 cells, 2 h at 4° C., specific binding as percent of control.

Read-outs that look alike come from different tables or passages of the source.

Consider `CCOC(=O)CN1C(=O)S/C(=C/c2ccc(-c3ccc(C(=O)O)cc3C)o2)C1=O` [Compound 121, 4-[5-(3-Ethoxycarbonylmethyl-2,4-dioxo-thiazolidin-5-ylidenemethyl)furan-2-yl]-3-methylbenzoic acid], for which the activity at 50 µM in assay [1] (setting [3]) is over 50%. Moreover, the “NGF Activity % Maximal Binding” value in assay [2] (Table 4) is on record as “* (50 < *)”.
Turning to `Cc1cc(C)cc(N2C(=O)/C(=C/c3ccc(-c4ccc(C(=O)O)cc4)o3)C(=O)NC2=S)c1` [Compound 124, 4-{5-[1-(3,5-Dimethylphenyl)-4,6-dioxo-2-thioxo-tetrahydro-pyrimidin-5-ylidenemethyl]furan-2-yl}benzoic acid], the activity at 50 µM in assay [1] was over 50%. Moreover, the “NGF Activity % Maximal Binding” value in assay [2] (Table 4) is “* (50 < *)”.
Regarding `Cc1ccc(N2NC(=O)/C(=C/c3ccc(-c4ccc(S(N)(=O)=O)cc4)o3)C2=O)cc1` [Compound 102, 4-[5-(3,5-Dioxo-1-p-tolyl-pyrazolidin-4-ylidenemethyl)furan-2-yl]benzenesulfonamide], the activity at 50 µM in assay [1] (setting [3]) is over 50%. For the same compound, in assay [2] (Table 4), the “NGF Activity % Maximal Binding” value is reported as “* (50 < *)”.
With `O=C1NC(=S)N/C1=C/c1ccc(-c2ccc(C(=O)O)c(Cl)c2)o1` [Compound 108, 2-Chloro-4-[5-(5-oxo-2-thioxo-imidazolidin-4-ylidenemethyl)furan-2-yl]benzoic acid], in assay [1] (setting [3]), the activity at 50 µM is over 50%. Besides, in assay [2] (Table 4), the “NGF Activity % Maximal Binding” value is given as “* (50 < *)”.
`O=C(O)c1cc(-c2ccc(/C=C3\NC(=O)N(Cc4ccc(F)cc4)C3=O)o2)ccc1Cl` [Compound 28, 2-Chloro-5-{5-[1-(4-fluorobenzyl)-2,5-dioxo-imidazolidin-4-ylidenemethyl]furan-2-yl}benzoic acid]: the activity at 50 µM in assay [1] (setting [4]) fell in the range of 10 to 20%. Further, in assay [2] (Table 1), the “NGF Activity % Maximal Binding” value is on record as “* (50 < *)”.
For the compound `Cc1ccc(C(=O)O)cc1-c1ccc(/C=C2/NC(=O)N(c3ccccc3)C2=O)o1` [Compound 16, 3-[5-(2,5-Dioxo-1-phenyl-imidazolidin-4-ylidenemethyl)furan-2-yl]-4-methylbenzoic acid], the activity at 50 µM in assay [1] (setting [4]) fell in the range of 0 to 10%. The “NGF Activity % Maximal Binding” value in assay [2] (Table 1) is “* (50 < *)”.
As to `CCOC(=O)CN1C(=O)S/C(=C/c2ccc(-c3cccc([N+](=O)[O-])c3)o2)C1=O` [Compound 116, {5-[5-(3-Nitrophenyl)furan-2-ylmethylene]-2,4-dioxo-thiazolidin-3-yl}-acetic acid ethyl ester], the activity at 50 µM in assay [1] (setting [3]) was over 50%. The “NGF Activity % Maximal Binding” value in assay [2] (Table 4) is given as “* (50 < *)”.
Turning to `COC(=O)c1cc(-c2ccc(/C=C3/NC(=S)NC3=O)o2)ccc1Cl` [Compound 91, 2-Chloro-5-[5-(5-oxo-2-thioxo-imidazolidin-4-ylidenemethyl)furan-2-yl]benzoic acid methyl ester], in assay [1] (setting [3]), the activity at 50 µM was over 50%. Also, the “NGF Activity % Maximal Binding” value in assay [2] (Table 4) was “* (50 < *)”.
Consider `COC(=O)CN1C(=O)S/C(=C/c2ccc(-c3ccc(C(=O)O)cc3)o2)C1=O` [Compound 79, 4-[5-(3-Methoxycarbonylmethyl-2,4-dioxo-thiazolidin-5-ylidenemethyl)furan-2-yl]benzoic acid], for which, in assay [1] (Table 2, test compound 50 μM, 0.5 nM 125I-BDNF, PC12 cells, 2 h at 4° C., specific binding as percent of control), the activity at 50 µM is 10 to 20%. For the same compound, the “NGF Activity % Maximal Binding” value in assay [2] (Table 2) is reported as “X (40 < X < 50)”.
In the case of `CCOC(=O)c1ccc(-c2ccc(/C=C3/C(=O)NN(c4cccc(C)c4)C3=O)o2)cc1` [Compound 63, 4-[5-(3,5-Dioxo-1-m-tolyl-pyrazolidin-4-ylidenemethyl)furan-2-yl]benzoic acid ethyl ester], in assay [1] (setting [4]), the activity at 50 µM was in the range of 40 to 50%. For the same compound, the “NGF Activity % Maximal Binding” value in assay [2] (Table 1) is recorded as “* (50 < *)”.
With `COc1cc([N+](=O)[O-])ccc1-c1ccc(/C=C2\NC(=S)NC2=O)o1` [Compound 90, 5-[5-(2-Methoxy-4-nitrophenyl)furan-2-ylmethylene]-2-thioxo-imidazolidin-4-one], the activity at 50 µM in assay [1] (setting [3]) was over 50%. Moreover, the “NGF Activity % Maximal Binding” value in assay [2] (Table 4) is on record as “* (50 < *)”.
On the same counts, the results for `O=C(O)c1ccc(-c2ccc(/C=C3/NC(=O)N(Cc4ccc(F)cc4)C3=O)o2)cc1` [Compound 126, 4-{5-[1-(4-Fluorobenzyl)-2,5-dioxo-imidazolidin-4-ylidenemethyl]furan-2-yl}benzoic acid] are over 50% and “* (50 < *)”.
In the same order, the values of `O=C1NC(=S)N/C1=C\c1ccc(-c2cccc([N+](=O)[O-])c2)o1` [Compound 89, 5-[5-(3-Nitrophenyl)furan-2-ylmethylene]-2-thioxo-imidazolidin-4-one] are over 50% and “* (50 < *)”.
On to `Cc1c(-c2ccc(C=C3C(=O)NC(=O)NC3=O)o2)cccc1[N+](=O)[O-]` [Compound 109, 5-[5-(2-Methyl-3-nitrophenyl)furan-2-ylmethylene]-pyrimidine-2,4,6-trione], for which the activity at 50 µM in assay [1] was over 50%. Besides, in assay [2] (Table 4), the “NGF Activity % Maximal Binding” value was “* (50 < *)”.
Consider `COC(=O)C(C)N1C(=O)S/C(=C/c2ccc(-c3cc(C(=O)O)ccc3C)o2)C1=O` (stereo not shown) [Compound 29, 3-{5-[3-(1-Methoxycarbonyl-ethyl)-2,4-dioxo-thiazolidin-5-ylidenemethyl]furan-2-yl}-4-methylbenzoic acid], for which the activity at 50 µM in assay [1] (setting [4]) lay in the range of 10 to 20%. The “NGF Activity % Maximal Binding” value in assay [2] (Table 1) is “* (50 < *)”.
Consider `Cc1cc(C(=O)O)ccc1-c1ccc(/C=C2/NC(=O)NC2=O)o1` [Compound 41, 4-[5-(2,5-Dioxo-imidazolidin-4-ylidenemethyl)furan-2-yl]-3-methylbenzoic acid], for which, in assay [1] (setting [4]), the activity at 50 µM fell in the range of 20 to 30%. The “NGF Activity % Maximal Binding” value in assay [2] (Table 1) was “* (50 < *)”.
Take `O=C(O)CCN1C(=O)C(=Cc2ccc(-c3ccc([N+](=O)[O-])cc3)o2)SC1=S` [Compound 10, 3-{5-[5-(4-Nitrophenyl)furan-2-ylmethylene]-4-oxo-2-thioxo-thiazolidin-3-yl}-propionic acid]: the activity at 50 µM in assay [1] (setting [4]) lay within 0 to 10%. For the same compound, the “NGF Activity % Maximal Binding” value in assay [2] (Table 1) was “* (50 < *)”.
For the compound `Cc1cc(-c2ccc(C=C3NC(=S)NC3=O)o2)ccc1[N+](=O)[O-]` [Compound 95, 5-[5-(3-Methyl-4-nitrophenyl)furan-2-ylmethylene]-2-thioxo-imidazolidin-4-one], in assay [1] (setting [3]), the activity at 50 µM is over 50%. In addition, the “NGF Activity % Maximal Binding” value in assay [2] (Table 4) is “* (50 < *)”.
For the compound `Cc1cc(-c2ccc(C=C3SC(=S)N(CC(=O)O)C3=O)o2)ccc1[N+](=O)[O-]` [Compound 15, {5-[5-(3-Methyl-4-nitrophenyl)furan-2-ylmethylene]-4-oxo-2-thioxo-thiazolidin-3-yl}-acetic acid], the activity at 50 µM in assay [1] (setting [4]) was 0 to 10%.
